Measured values reported in publication PMC5576570 (Cell chemical biology, 2017).
Values belong to the molecule of their own block, whether it stands above or below them.

How the values were obtained:
[1] = system: RA fibroblast-like synoviocytes (RA FLS); assay: Caspase-3/7 activity assay in RA FLS; type: cell-based, human; settings: for increase of caspase activity: 48h TNFα treatment
[2] = system: IL-8 secretion; assay: IL-8 ELISA in RA FLS; type: cell-based, human; settings: 24h treatment in the presence of TNFα
[3] = biological target: TAK1-TAB1-GFP (Homo sapiens, UniProt O43318); assay: Elution of TAK1-TAB1-GFP from γ-linked ATP sepharose; type: binding; settings: lysate of HEK293T cells expressing TAK1-TAB1-GFP
[4] = system: panel of other kinases; settings: ref J. Wu et al., 2013; cited from earlier work
[5] = system: IL-6 secretion; assay: IL-6 ELISA in RA FLS; type: cell-based, human; settings: 24h treatment in the presence of TNFα, μM concentrations
[6] = biological target: IRAK4 (Homo sapiens, UniProt Q9NWZ3); assay: MRC Dundee kinase panel / dose-response kinase assay; type: biochemical; settings: 10μM compound
[7] = biological target: MAP3K5/ASK1 (Homo sapiens, UniProt Q99683); assay: MRC Dundee kinase panel; settings: 10μM, Table S1
[8] = system: MDA-MB-231 cells; assay: Hoechst proliferation assay; type: cell-based, human
[9] = system: p38; assay: MRC Dundee kinase panel; settings: 10μM
[10] = system: MDA-MB-231 cells; assay: Caspase-3/7 activity assay in MDA-MB-231 cells; type: cell-based, human
[11] = biological target: T1, GCK/MAP4K2 (Homo sapiens, UniProt Q12851); assay: MRC Dundee kinase panel / dose-response kinase assay
T1 sequence (Q12851 1-820): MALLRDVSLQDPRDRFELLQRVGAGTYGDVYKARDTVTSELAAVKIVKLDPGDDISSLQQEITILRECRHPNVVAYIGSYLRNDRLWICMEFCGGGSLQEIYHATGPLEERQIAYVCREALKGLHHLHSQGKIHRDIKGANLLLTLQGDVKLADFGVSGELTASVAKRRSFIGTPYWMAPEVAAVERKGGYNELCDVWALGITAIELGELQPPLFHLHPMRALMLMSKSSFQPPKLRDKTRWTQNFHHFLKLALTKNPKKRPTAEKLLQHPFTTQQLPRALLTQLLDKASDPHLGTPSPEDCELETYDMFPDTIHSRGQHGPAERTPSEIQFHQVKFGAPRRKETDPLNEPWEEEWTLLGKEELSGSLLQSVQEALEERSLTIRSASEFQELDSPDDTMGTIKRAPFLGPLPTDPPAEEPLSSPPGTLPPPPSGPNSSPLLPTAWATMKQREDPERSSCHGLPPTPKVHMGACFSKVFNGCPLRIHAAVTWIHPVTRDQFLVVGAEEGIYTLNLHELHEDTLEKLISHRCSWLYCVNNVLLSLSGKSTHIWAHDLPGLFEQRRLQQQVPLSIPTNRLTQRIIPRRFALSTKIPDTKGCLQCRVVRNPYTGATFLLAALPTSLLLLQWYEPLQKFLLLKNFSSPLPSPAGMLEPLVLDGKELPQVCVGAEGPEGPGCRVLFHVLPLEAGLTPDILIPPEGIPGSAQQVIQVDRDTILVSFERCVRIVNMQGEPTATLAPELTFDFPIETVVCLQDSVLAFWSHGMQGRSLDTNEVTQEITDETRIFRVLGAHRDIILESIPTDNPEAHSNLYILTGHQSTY

[12] = biological target: MEKK1/MAP3K1 (Homo sapiens, UniProt Q13233); assay: MRC Dundee kinase panel; settings: 10μM, Table S1
[13] = system: TAK1 Thr184 phosphorylation; assay: Cellular TAK1 autophosphorylation after TNFα stimulation; type: cell-based; settings: 15min of TNFα stimulation
[14] = system: phosphorylation status of IKK, p38, and p65; assay: Western blot of TNFα signaling downstream of TAK1 in MDA-MB-231 cells; type: cell-based, human; settings: 10μM pre-treatment 2h, TNFα time-course 60min
[15] = biological target: IRAK1 (Homo sapiens, UniProt P51617); assay: MRC Dundee kinase panel / dose-response kinase assay; type: biochemical; settings: 10μM compound
[16] = biological target: TAK1/MAP3K7 (Homo sapiens, UniProt O43318); assay: as above; type: biochemical; settings: 10μM compound
[17] = system: phosphorylation of IKK, MAPK 8/9, and cJun; assay: Western blot dose-dependency in Hela cells after TNFα stimulation; type: cell-based, human; settings: 15 minutes of TNFα stimulation
[18] = biological target: MINK1 (Homo sapiens, UniProt Q8N4C8); assay: MRC Dundee kinase panel; type: biochemical; settings: 10μM compound
[19] = biological target: MKK6/MAP2K6 (Homo sapiens, UniProt P52564); assay: MRC Dundee kinase panel; settings: 10μM, Table S1
[20] = biological target: Yes1 (Homo sapiens, UniProt P07947); assay: MRC Dundee kinase panel; settings: 10μM
[21] = biological target: MKK1/MAP2K1 (Homo sapiens, UniProt Q02750); assay: MRC Dundee kinase panel; settings: 10μM, Table S1
[22] = biological target: Src (Homo sapiens, UniProt P12931); assay: MRC Dundee kinase panel; settings: 10μM
[23] = biological target: CLK2 (Homo sapiens, UniProt P49760); assay: MRC Dundee kinase panel; type: biochemical; settings: 10μM compound
Chain of CLK2 (P49760 whole entry): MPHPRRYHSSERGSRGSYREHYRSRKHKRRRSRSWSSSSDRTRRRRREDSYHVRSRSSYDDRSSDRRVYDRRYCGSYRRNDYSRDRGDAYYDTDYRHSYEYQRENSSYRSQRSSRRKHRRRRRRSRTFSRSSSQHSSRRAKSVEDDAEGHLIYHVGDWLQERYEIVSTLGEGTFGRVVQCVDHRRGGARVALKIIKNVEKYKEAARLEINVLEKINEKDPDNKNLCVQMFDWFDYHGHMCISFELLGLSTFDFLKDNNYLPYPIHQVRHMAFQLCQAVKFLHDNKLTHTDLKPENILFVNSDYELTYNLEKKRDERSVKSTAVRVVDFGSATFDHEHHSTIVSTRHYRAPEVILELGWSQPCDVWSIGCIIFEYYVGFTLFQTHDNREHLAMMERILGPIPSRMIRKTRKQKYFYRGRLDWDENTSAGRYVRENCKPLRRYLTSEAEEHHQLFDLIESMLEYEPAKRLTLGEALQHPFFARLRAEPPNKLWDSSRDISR

Chain of MINK1 (Q8N4C8 whole entry): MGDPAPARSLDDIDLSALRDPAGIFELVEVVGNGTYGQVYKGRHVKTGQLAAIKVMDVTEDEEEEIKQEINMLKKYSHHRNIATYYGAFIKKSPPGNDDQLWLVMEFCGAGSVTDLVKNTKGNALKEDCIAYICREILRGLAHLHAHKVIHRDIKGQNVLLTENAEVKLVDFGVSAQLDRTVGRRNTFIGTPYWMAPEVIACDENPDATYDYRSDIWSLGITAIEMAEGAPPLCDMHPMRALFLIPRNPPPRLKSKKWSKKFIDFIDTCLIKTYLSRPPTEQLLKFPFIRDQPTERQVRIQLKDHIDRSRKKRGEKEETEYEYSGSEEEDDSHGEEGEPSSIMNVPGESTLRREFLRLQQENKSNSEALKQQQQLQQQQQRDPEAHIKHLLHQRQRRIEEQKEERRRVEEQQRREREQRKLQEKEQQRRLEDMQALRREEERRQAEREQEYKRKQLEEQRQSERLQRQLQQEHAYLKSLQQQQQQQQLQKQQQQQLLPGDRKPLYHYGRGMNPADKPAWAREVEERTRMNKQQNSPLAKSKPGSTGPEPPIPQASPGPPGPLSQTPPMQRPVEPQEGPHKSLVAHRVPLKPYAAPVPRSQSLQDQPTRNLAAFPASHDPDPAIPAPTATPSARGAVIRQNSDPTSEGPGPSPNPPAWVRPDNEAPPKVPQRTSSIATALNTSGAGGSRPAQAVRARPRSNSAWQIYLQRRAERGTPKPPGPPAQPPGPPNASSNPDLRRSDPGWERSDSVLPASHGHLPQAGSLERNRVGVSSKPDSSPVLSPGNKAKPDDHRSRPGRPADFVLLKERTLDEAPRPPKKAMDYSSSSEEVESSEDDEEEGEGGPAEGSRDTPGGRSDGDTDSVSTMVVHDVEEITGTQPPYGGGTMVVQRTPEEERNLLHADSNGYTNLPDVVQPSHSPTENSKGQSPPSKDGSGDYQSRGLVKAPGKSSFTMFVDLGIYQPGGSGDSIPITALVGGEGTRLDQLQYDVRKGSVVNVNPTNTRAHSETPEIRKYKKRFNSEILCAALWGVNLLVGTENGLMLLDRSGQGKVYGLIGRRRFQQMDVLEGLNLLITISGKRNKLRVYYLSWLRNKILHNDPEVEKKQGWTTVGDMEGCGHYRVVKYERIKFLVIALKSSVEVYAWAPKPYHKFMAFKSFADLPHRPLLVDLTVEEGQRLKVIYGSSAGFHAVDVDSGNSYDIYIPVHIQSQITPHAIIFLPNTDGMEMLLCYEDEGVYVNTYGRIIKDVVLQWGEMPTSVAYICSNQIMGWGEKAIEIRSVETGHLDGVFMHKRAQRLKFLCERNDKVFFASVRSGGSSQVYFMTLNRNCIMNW
Chain of Src (P12931 whole entry): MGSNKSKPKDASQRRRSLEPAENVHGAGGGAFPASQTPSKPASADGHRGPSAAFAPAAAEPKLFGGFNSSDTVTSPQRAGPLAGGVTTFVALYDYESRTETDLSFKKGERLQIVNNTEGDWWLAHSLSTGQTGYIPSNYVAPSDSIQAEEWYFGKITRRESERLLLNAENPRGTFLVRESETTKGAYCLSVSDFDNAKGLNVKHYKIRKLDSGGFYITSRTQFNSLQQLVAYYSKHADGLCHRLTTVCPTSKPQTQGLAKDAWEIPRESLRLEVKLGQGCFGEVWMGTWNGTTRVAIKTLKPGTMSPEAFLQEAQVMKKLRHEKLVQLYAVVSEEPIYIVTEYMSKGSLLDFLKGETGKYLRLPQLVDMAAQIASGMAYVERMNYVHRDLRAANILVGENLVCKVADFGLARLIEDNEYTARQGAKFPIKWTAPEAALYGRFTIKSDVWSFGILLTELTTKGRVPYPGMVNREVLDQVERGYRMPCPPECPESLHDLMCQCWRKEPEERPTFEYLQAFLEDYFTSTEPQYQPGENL
Chain of MAP3K5/ASK1 (Q99683 whole entry): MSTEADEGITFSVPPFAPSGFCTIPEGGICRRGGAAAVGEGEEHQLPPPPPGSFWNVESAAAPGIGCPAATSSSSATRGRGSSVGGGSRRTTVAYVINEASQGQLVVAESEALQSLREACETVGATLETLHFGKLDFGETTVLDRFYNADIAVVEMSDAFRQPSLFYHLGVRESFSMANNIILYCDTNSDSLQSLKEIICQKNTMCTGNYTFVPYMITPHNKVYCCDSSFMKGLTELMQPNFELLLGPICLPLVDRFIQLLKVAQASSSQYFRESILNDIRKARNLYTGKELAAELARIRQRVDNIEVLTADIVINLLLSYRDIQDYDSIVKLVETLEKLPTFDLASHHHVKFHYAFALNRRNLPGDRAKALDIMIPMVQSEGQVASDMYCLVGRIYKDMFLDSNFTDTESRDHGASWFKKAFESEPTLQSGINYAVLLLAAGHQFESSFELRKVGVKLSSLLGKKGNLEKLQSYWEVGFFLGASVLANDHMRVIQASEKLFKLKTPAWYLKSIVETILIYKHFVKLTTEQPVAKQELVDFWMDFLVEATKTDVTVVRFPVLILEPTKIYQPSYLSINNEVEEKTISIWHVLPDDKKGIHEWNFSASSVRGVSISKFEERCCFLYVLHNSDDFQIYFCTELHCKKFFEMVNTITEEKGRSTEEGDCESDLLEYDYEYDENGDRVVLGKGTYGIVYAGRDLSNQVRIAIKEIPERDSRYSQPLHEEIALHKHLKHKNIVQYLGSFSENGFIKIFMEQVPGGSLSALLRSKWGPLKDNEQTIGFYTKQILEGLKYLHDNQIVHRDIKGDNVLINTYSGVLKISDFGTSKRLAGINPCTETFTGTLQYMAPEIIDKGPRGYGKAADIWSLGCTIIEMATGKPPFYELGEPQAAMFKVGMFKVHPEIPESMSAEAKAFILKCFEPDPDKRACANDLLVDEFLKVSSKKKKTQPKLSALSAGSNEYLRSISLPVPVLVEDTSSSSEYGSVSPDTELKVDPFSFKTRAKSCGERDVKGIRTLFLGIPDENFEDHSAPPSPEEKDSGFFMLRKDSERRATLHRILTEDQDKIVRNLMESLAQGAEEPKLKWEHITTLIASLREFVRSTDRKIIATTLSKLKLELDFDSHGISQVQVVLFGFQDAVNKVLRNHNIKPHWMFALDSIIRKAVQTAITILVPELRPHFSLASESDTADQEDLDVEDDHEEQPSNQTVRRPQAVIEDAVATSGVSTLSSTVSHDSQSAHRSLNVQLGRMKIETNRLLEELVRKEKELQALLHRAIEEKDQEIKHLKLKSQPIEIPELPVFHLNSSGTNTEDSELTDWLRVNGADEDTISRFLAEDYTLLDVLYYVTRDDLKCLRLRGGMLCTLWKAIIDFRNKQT
Chain of IRAK1 (P51617 whole entry): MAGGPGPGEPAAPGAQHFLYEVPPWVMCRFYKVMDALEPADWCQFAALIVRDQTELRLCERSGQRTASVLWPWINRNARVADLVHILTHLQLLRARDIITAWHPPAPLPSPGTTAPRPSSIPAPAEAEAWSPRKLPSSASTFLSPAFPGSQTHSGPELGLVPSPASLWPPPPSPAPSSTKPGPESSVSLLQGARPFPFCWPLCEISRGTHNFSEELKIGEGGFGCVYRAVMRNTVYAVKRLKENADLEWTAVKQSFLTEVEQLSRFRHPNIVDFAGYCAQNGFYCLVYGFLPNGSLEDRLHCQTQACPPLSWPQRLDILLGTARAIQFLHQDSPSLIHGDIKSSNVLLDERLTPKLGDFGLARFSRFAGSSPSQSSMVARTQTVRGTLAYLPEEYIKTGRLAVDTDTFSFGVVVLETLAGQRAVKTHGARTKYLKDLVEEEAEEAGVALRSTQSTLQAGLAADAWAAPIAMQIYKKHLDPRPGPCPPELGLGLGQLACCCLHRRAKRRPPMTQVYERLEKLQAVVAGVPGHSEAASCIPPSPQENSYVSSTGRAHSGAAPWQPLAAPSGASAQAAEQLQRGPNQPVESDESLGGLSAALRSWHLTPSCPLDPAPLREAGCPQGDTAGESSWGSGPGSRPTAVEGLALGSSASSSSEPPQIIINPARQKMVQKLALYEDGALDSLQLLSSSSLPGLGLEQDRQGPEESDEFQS
Chain of Yes1 (P07947 whole entry): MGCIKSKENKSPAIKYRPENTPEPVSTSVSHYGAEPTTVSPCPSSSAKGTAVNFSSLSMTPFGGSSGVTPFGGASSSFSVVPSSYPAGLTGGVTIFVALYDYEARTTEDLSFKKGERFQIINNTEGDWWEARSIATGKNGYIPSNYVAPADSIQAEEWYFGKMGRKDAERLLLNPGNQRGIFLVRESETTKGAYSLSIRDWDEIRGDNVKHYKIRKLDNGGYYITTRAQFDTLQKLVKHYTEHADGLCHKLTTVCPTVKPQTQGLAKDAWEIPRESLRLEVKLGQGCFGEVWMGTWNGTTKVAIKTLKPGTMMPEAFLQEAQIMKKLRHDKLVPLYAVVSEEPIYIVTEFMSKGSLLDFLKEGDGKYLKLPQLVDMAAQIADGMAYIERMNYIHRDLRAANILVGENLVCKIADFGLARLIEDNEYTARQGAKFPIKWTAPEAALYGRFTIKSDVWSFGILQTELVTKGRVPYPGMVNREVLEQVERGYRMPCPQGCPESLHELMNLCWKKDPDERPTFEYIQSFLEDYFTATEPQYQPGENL

Structure (SMILES): CCn1c(NC(=O)c2cccc(C(N)=O)c2)nc2ccccc21 [Compound 4, N-(1-ethyl-1H-benzo[d]imidazol-2-yl)isophthalamide]
- increase of caspase activity [1]: 33%
- reduction of IL-8 secretion [2]: 40%

- increase of caspase activity [1]: marginal
Structure (SMILES): CCn1c(NC(=O)c2cccc(C(=O)O)c2)nc2ccccc21 [Compound 5, 3-((1-ethyl-1H-benzo[d]imidazol-2-yl)carbamoyl)benzoic acid]

- elution profile from ATP sepharose [3]: additional bands were present
- caspase induction ([1]; 10ng/ml TNFα, 48h, concentrations above 1μM): reduces caspase induction
Structure (SMILES): COc1cc(O)c2c(c1)/C=C/C[C@H](O)[C@H](O)C(=O)/C=C\C[C@H](C)OC2=O [Compound 5ZO, (5Z)-7-oxozeaenol, reference compound]
- potency in IL-8 secretion experiments [2]: significantly more potent than the other compounds
- number of other kinases potently inhibited [4]: at least 50
- inhibition of IL-6 secretion [5]: significantly more potent than the other compounds

Structure (SMILES): CCCn1c(NC(=O)c2cccc(C(N)=O)c2)nc2ccccc21 [Takinib, N-(1-Propyl-1H-benzo[d]imidazol-2-yl)isophthalamide]
- enzyme activity after exposure [6]: < 10%
- inhibition in kinome profiling [7]: no efficacy
- cell proliferation (DNA content) ([8]; TNFα not present): cells remain viable
- cell proliferation (DNA content) ([8]; TNFα-stimulated, 24h): dose-dependent reduction of DNA content
- inhibition in kinome profiling [9]: completely insensitive
- caspase 3/7 activity ([10]; TNFα-stimulated, serum-starved cells, titrations): induced caspase activity in MDA-MB-231cells in a dose-dependent manner
- caspase 3/7 activity ([10]; unstimulated cells (no TNFα)): did not upregulate caspase activity
- elution profile from ATP sepharose [3]: eluted TAK1-TAB1-GFP quite selectively
- IC50 [11]: 450 nM
- lower potency on GCK compared to TAK1 [11]: 45 fold
- enzyme activity after exposure ([11]; 10μM compound): < 10%
- caspase activity ([1]; 24h treatment with TNFα): did not observe a dose-dependent effect on caspase activity
- apoptosis (caspase 3/7 activity) ([1]; 48h, 10 and 30ng/ml TNFα): apoptosis was observed in the 10 and 30ng/ml groups in a dose-dependent manner
- increase of caspase activity [1]: 33%
- reduction of IL-8 secretion [2]: 40%
- inhibition in kinome profiling [12]: does not inhibit
- Thr184 phosphorylation [13]: significantly reduced at low μM concentrations
- phosphorylation of IKK, p38, p65 [14]: reduced phosphorylation
- enzyme activity after exposure [15]: < 10%
- enzyme activity after exposure [16]: < 10%
- phosphorylation of IKK, MAPK 8/9, cJun [17]: inhibits phosphorylation of IKK, MAPK 8/9, and cJun in a dose-dependent manner
- enzyme activity after exposure [18]: < 10%
- inhibition in kinome profiling [19]: does not inhibit
- inhibition in initial kinome profiling [20]: only weakly inhibited
- inhibition of IL-6 secretion [5]: almost complete inhibition
- inhibition in kinome profiling [21]: does not inhibit
- inhibition in initial kinome profiling [22]: only weakly inhibited
- enzyme activity after exposure [23]: < 10%

Structure (SMILES): C[C@@H]1CCN(C(=O)CC#N)C[C@@H]1N(C)c1ncnc2[nH]ccc12 [tofacitinib, reference compound]
- increase of caspase activity [1]: no effect
- reduction of IL-8 secretion [2]: 40%
